Measurements published in ChEMBL document CHEMBL1123973, “Renin inhibitors containing hydrophilic groups. Tetrapeptides with enhanced aqueous solubility and nanomolar potency” (J Med Chem, 1988).

Tests used:
[1] = buffer, pH 7.4
Description: Solubility (phosphate buffer, pH 7.4)

physchem [2] = details: phosphate buffer, pH 7.4, S
Description: Solubility (phosphate buffer, pH 7.4)

[3] = Partition coefficient (logD) (octanol/citric acid-phosphate buffer)
Sus scrofa = species: Sus scrofa; assay: Concentration required for 50% inhibition of porcine kidney renin at 10e-7 nM concentration; format: functional
physchem [4] = details: S
Canis familiaris [5] = assay: Change in mean blood pressure (MBP) in dog 1 after oral administration after a period of 240 min; format: functional, Canis lupus familiaris
Canis familiaris [6] = assay: Change in mean blood pressure (MBP) in dog 1 after oral administration after a period of 180 min; format: functional, Canis lupus familiaris
Canis familiaris [7] = assay: Change in mean blood pressure (MBP) in dog 2 after oral administration after a period of 60 min; format: functional, Canis lupus familiaris
Canis familiaris [8] = assay: Change in mean blood pressure (MBP) in dog 3 after oral administration after a period of 75 min; format: functional, Canis lupus familiaris
Canis familiaris [9] = assay: Change in mean blood pressure (MBP) in dog 2 after oral administration after a period of 120 min; format: functional, Canis lupus familiaris
Canis familiaris [10] = assay: Change in mean blood pressure (MBP) in dog 2 after oral administration after a period of 45 min; format: functional, Canis lupus familiaris
Canis familiaris [11] = assay: Change in mean blood pressure (MBP) in dog 2 after oral administration after a period of 30 min; format: functional, Canis lupus familiaris
Canis familiaris [12] = assay: Change in mean blood pressure (MBP) in dog 3 after oral administration after a period of 120 min; format: functional, Canis lupus familiaris
Canis familiaris [13] = assay: Change in mean blood pressure (MBP) in dog 1 after oral administration after a period of 45 min; format: functional, Canis lupus familiaris
Canis familiaris [14] = assay: Change in mean blood pressure (MBP) in dog 3 after oral administration after a period of 180 min; format: functional, Canis lupus familiaris
Canis familiaris [15] = assay: Change in mean blood pressure (MBP) in dog 1 after oral administration after a period of 150 min; format: functional, Canis lupus familiaris
Canis familiaris [16] = assay: Change in mean blood pressure (MBP) in dog 1 after oral administration after a period of 75 min; format: functional, Canis lupus familiaris
Canis familiaris [17] = assay: Change in mean blood pressure (MBP) in dog 2 after oral administration after a period of 90 min; format: functional, Canis lupus familiaris
Canis familiaris [18] = assay: Change in mean blood pressure (MBP) in dog 1 after oral administration after a period of 30 min; format: functional, Canis lupus familiaris
Canis familiaris [19] = assay: Change in mean blood pressure (MBP) in dog 1 after oral administration after a period of 300 min; format: functional, Canis lupus familiaris
Canis familiaris [20] = assay: Change in mean blood pressure (MBP) in dog 1 after oral administration after a period of 10 min; format: functional, Canis lupus familiaris
Canis familiaris [21] = assay: Change in mean blood pressure (MBP) in dog 2 after oral administration after a period of 75 min; format: functional, Canis lupus familiaris
Canis familiaris [22] = assay: Change in mean blood pressure (MBP) in dog 1 after oral administration after a period of 60 min; format: functional, Canis lupus familiaris
Canis familiaris [23] = assay: Change in mean blood pressure (MBP) in dog 3 after oral administration after a period of 30 min; format: functional, Canis lupus familiaris
Canis familiaris [24] = assay: Change in mean blood pressure (MBP) in dog 2 after oral administration after a period of 300 min; format: functional, Canis lupus familiaris
Canis familiaris [25] = assay: Change in mean blood pressure (MBP) in dog 2 after oral administration after a period of 180 min; format: functional, Canis lupus familiaris
Canis familiaris [26] = assay: Change in mean blood pressure (MBP) in dog 3 after oral administration after a period of 90 min; format: functional, Canis lupus familiaris
Canis familiaris [27] = assay: Change in mean blood pressure (MBP) in dog 3 after oral administration after a period of 300 min; format: functional, Canis lupus familiaris
Canis familiaris [28] = assay: Change in mean blood pressure (MBP) in dog 1 after oral administration after a period of 120 min; format: functional, Canis lupus familiaris
Canis familiaris [29] = assay: Change in mean blood pressure (MBP) in dog 3 after oral administration after a period of 240 min; format: functional, Canis lupus familiaris
Canis familiaris [30] = assay: Change in mean blood pressure (MBP) in dog 3 after oral administration after a period of 150 min; format: functional, Canis lupus familiaris
Canis familiaris [31] = assay: Change in mean blood pressure (MBP) in dog 3 after oral administration after a period of 45 min; format: functional, Canis lupus familiaris
Canis familiaris [32] = assay: Change in mean blood pressure (MBP) in dog 3 after oral administration after a period of 15 min; format: functional, Canis lupus familiaris
Canis familiaris [33] = assay: Change in mean blood pressure (MBP) in dog 1 after oral administration after a period of 90 min; format: functional, Canis lupus familiaris
Canis familiaris [34] = assay: Change in mean blood pressure (MBP) in dog 2 after oral administration after a period of 240 min; format: functional, Canis lupus familiaris
Canis familiaris [35] = assay: Change in mean blood pressure (MBP) in dog 1 after oral administration after a period of 15 min; format: functional, Canis lupus familiaris
Canis familiaris [36] = assay: Change in mean blood pressure (MBP) in dog 3 after oral administration after a period of 60 min; format: functional, Canis lupus familiaris
Canis familiaris [37] = assay: Change in mean blood pressure (MBP) in dog 2 after oral administration after a period of 150 min; format: functional, Canis lupus familiaris
Canis familiaris [38] = assay: Change in mean blood pressure (MBP) in dog 2 after oral administration after a period of 15 min; format: functional, Canis lupus familiaris

## CC(C)CC(NC(=O)[C@H](Cc1c[nH]cn1)NC(=O)[C@H](Cc1ccccc1)NC(=O)OC(C)(C)C)C(O)CC(=O)N[C@@H](CC(C)C)C(=O)NCCC(N)C(=O)O (stereo in doubt; 16)
[1]
  S: 6100 µM
other
  S: 2300 µM

## CC(C)CC(NC(=O)[C@H](Cc1c[nH]cn1)NC(=O)[C@H](Cc1ccccc1)NC(=O)OC(C)(C)C)C(O)CC(=O)N[C@@H](CC(C)C)C(=O)NCCS(=O)(=O)O (stereo not given in full)
Physchem [2]
  solubility: > 11 mM
[3]
  logD: 0.633
Sus scrofa
  Inhibition: 0%
Physchem [4]
  solubility: > 11 mM

## CC(C)C[C@H](NC(=O)CC(O)C(CC1CCCCC1)NC(=O)[C@H](Cc1c[nH]cn1)NC(=O)[C@H](Cc1ccccc1)NC(=O)OC(C)(C)C)C(=O)NCc1cccc(CN)c1 (stereo not given in full)
Canis familiaris [5]
  MBP: 1 mmHg
Canis familiaris [6]
  MBP: -13 mmHg
Canis familiaris [7]
  MBP: 0 mmHg
Canis familiaris [8]
  MBP: -9 mmHg
Canis familiaris [9]
  MBP: -4 mmHg
Canis familiaris [10]
  MBP: -4 mmHg
Canis familiaris [11]
  MBP: -3 mmHg
Canis familiaris [12]
  MBP: 1 mmHg
Canis familiaris [13]
  MBP: -6 mmHg
Canis familiaris [14]
  MBP: -5 mmHg
Canis familiaris [15]
  MBP: -1 mmHg
Canis familiaris [16]
  MBP: -7 mmHg
Canis familiaris [17]
  MBP: -5 mmHg
Canis familiaris [18]
  MBP: -2 mmHg
Canis familiaris [19]
  MBP: -10 mmHg
Canis familiaris [20]
  MBP: -12 mmHg
Canis familiaris [21]
  MBP: 1 mmHg
Canis familiaris [22]
  MBP: -4 mmHg
Canis familiaris [23]
  MBP: -6 mmHg
Canis familiaris [24]
  MBP: -1 mmHg
Canis familiaris [25]
  MBP: -2 mmHg
Canis familiaris [26]
  MBP: -2 mmHg
Canis familiaris [27]
  MBP: -3 mmHg
Canis familiaris [28]
  MBP: -2 mmHg
Canis familiaris [29]
  MBP: -3 mmHg
Canis familiaris [30]
  MBP: -2 mmHg
Canis familiaris [31]
  MBP: -7 mmHg
Canis familiaris [32]
  MBP: 1 mmHg
Canis familiaris [33]
  MBP: 1 mmHg
Canis familiaris [34]
  MBP: -1 mmHg
Canis familiaris [35]
  MBP: -18 mmHg
Canis familiaris [36]
  MBP: -5 mmHg
Canis familiaris [37]
  MBP: -3 mmHg
Canis familiaris [38]
  MBP: -6 mmHg
